Data reported in publication PMC8294059, “Identification and Immune Assessment of T Cell Epitopes in Five Plasmodium falciparum Blood Stage Antigens to Facilitate Vaccine Candidate Selection and Optimization” (Frontiers in Immunology, 2021).
Where a SMILES comes first, the peptide text is derived from it.

molecular target: HLA-A*0101 (Homo sapiens, UniProt P04439, A114D/A174V/A182V/D101N/D185E/E176A/E190D/L180R/Q94H/R68K/S129P/T187R/V100A/V91M/W191G); test: biochemical; format: binding; details: allele A*0101; fluorescence polarization competition
How it was run: (§1)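 Cell-free competition assay: HLA heat-treated 53°C for 15 min to strip endogenous peptides, then mixed with fluorescent high-affinity control peptide and test peptides for 72 h to equilibrium. Displacement read by fluorescence polarization as percent inhibition; IC50 derived from a concentration range.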

Compound | IC50 (nM), in vitro HLA binding affinity
SECDIGLIY [RIPR_0611] | Non-binder

molecular target: HLA-A*0301 (Homo sapiens, UniProt P04439); test: biochemical; format: binding; details: allele A*0301; fluorescence polarization competition; read-out: IC50 (nM), in vitro HLA binding affinity
How it was run: as §1

Compound | IC50 [nM]
CC(C)C[C@H](NC(=O)[C@H](CO)NC(=O)[C@H](CS)NC(=O)[C@@H]1CCCN1C(=O)[C@H](Cc1ccccc1)NC(=O)[C@H](CC(N)=O)NC(=O)[C@H](CC(N)=O)NC(=O)[C@H](CCC(=O)O)NC(=O)[C@@H](N)C(C)C)C(=O)N[C@@H](Cc1ccc(O)cc1)C(=O)O [AMA1_437] (H-VENNFPCSLY-OH) | 85400

molecular target: HLA-B*4402 (Homo sapiens, UniProt P01889, A223V/A65T/A93T/A95T/D201E/D98Y/E176V/E187L/E204Q/E69K/G107R/H137Y/K202T/L105A/L119I/N104T/N87E/Q56L/Q94N/R106L/R155S/R180D/S101N/S121R/S35A/S48T/T118I/V36M/W191S/Y140D/Y91S); test: In vitro class I HLA binding assay (fluorescence polarization competition); details: allele B*4402; cell-free competition, fluorescence polarization at 72 hours; Non-binder = no dose-dependent inhibition
How it was run: as §1

Compound | IC50 (nM)
NENNENNFL [EBA175_1454] | Non-binder

same assay, conditions: allele B*4402; cell-free competition, fluorescence polarization at 72 hours; Non-binder = no dose-dependent inhibition; read-out: IC50

Compound | IC50 [nM]
CC[C@H](C)[C@H](NC(=O)[C@H](Cc1c[nH]c2ccccc12)NC(=O)[C@H](CCC(N)=O)NC(=O)[C@@H](NC(=O)[C@@H](NC(=O)[C@H](CCC(N)=O)NC(=O)[C@H](CC(C)C)NC(=O)[C@H](CCC(=O)O)NC(=O)[C@@H](N)CCC(=O)O)[C@@H](C)CC)[C@@H](C)O)C(=O)O [EBA175_0316] (H-EELQITQWI-OH) | 19600
CC(C)C[C@H](NC(=O)[C@@H](NC(=O)[C@H](Cc1c[nH]cn1)NC(=O)[C@H](Cc1c[nH]c2ccccc12)NC(=O)[C@H](CCC(=O)O)NC(=O)[C@@H](N)Cc1ccccc1)[C@@H](C)O)C(=O)N[C@@H](CO)C(=O)N[C@@H](CCCCN)C(=O)N[C@@H](CCC(=O)O)C(=O)N[C@@H](Cc1ccc(O)cc1)C(=O)O [EBA175_0375] (H-FEWHTLSKEY-OH) | 19100
CC[C@H](C)[C@H](NC(=O)[C@H](CC(=O)O)NC(=O)[C@@H](NC(=O)[C@H](Cc1c[nH]cn1)NC(=O)[C@H](CO)NC(=O)[C@H](CC(C)C)NC(=O)[C@H](CCCNC(=N)N)NC(=O)[C@H](CCC(=O)O)NC(=O)[C@H](CCC(=O)O)NC(=O)[C@@H](N)CCC(=O)O)[C@@H](C)O)C(=O)O [EBA175_1211] (H-EEERLSHTDI-OH) | 19100

same assay, conditions: allele B*4402; fluorescence polarization competition

Compound | IC50 (nM), in vitro HLA binding affinity
DEYIHKLIL [RH5_361] | Non-binder
EEKDDIKNG [RH5_049] | Non-binder
KDLSDMTNI [RH5_378] | Non-binder
KEIDNDKENI [RH5_062] | Non-binder
KEKHLNNIF [RH5_486] | Non-binder
NDVPIKMEYF [RH5_506] | Non-binder
NEKNDVKNN [RH5_123] | Non-binder
SECDIGLIY [RIPR_0611] | Non-binder

same assay, conditions: allele B*4402; fluorescence polarization competition; read-out: IC50 (nM), in vitro HLA binding affinity

Compound | IC50 [nM]
CC(C)C[C@H](NC(=O)[C@H](CO)NC(=O)[C@H](CS)NC(=O)[C@@H]1CCCN1C(=O)[C@H](Cc1ccccc1)NC(=O)[C@H](CC(N)=O)NC(=O)[C@H](CC(N)=O)NC(=O)[C@H](CCC(=O)O)NC(=O)[C@@H](N)C(C)C)C(=O)N[C@@H](Cc1ccc(O)cc1)C(=O)O [AMA1_437] (H-VENNFPCSLY-OH) | 6020
